Measurements as given in US8067599B2 (Hoffman-La Roche Inc., priority 2006, dated 2011).
pIC50: −log10 of the molar value.

Key:
[1] = molecular target: T1, mouse full-length Src protein (Mus musculus, UniProt P05480); test: IC50 determination for inhibitors of Src kinase (IMAP fluorescence polarization); assay type: biochemical; details: 24 uM ATP, 37° C., 60 minutes; read-out: IC50 Src kinase inhibition
T1 construct: mouse full-length Src protein
Description: Src assay was done using mouse full-length Src protein, fluorescein labeled peptide substrate (with a sequence of KVEKIGEGTYGVVYK) and quantified by Molecular Devices' IMAP fluorescence polarization technology. Compounds were tested in serially diluted concentrations in 384 well plates. Kinase reaction was performed in KAB Buffer (10 mM HEPES, pH 7, 50 mM NaCl, 5 mM MgCl2, 1 mM DTT, 0.1 mM NaVO4, 0.02% BSA), in the presence of 24 uM ATP, incubated at 37° C. for 60 minutes. Reaction was stopped by IMAP bead mix (at 1:400 dilution). After incubation at room temperature for 2 hours, the reaction product was analyzed on LJL Acquest (excitation 485 nm and Emission 530 nm).
(§1) FP reading (in mP) was used to calculate reaction rate. The assay was semi-automated by Tomtec Quadra workstation.

[2] = molecular target: T2, fusion protein corresponding to mouse Abl (27-end) (Mus musculus, UniProt P00520); test: IC50 determination for inhibitors of Abl kinase (IMAP fluorescence polarization); assay type: biochemical; details: 22.8 uM ATP, 37° C., 60 minutes; read-out: IC50 Abl kinase inhibition
T2 construct: fusion protein corresponding to mouse Abl (27-end)
T2 sequence (P00520 27-1123 limits assumed): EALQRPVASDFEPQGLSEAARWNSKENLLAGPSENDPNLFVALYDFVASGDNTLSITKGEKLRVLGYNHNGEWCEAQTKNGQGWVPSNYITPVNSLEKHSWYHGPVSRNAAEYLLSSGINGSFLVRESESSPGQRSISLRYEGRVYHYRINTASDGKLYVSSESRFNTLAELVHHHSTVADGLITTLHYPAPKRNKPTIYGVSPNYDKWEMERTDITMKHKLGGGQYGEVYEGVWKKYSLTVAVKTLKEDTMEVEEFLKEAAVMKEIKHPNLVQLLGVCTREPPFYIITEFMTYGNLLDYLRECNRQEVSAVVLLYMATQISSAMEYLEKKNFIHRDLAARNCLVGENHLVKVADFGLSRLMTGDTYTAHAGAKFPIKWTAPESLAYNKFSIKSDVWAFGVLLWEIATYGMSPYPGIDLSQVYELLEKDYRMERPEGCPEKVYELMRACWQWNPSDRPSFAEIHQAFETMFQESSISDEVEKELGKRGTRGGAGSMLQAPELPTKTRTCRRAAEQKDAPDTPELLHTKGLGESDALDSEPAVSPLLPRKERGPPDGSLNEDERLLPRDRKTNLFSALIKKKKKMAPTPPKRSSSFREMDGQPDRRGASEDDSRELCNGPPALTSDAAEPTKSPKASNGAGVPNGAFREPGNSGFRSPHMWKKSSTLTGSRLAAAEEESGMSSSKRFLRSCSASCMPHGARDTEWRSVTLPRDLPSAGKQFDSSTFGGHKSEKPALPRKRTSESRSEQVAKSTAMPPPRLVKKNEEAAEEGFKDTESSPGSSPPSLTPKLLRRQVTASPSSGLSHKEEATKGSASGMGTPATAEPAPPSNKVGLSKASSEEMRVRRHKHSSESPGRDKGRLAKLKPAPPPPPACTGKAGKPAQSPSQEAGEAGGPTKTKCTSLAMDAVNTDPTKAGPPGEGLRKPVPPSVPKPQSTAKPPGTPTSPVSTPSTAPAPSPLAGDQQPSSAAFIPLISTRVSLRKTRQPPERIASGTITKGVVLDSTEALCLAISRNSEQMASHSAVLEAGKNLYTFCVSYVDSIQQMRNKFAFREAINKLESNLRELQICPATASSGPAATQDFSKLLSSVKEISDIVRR
Description: Abl assay was done using fusion protein corresponding to mouse Abl (27-end), fluorescein labeled peptide substrate (with a sequence of EAIYAAPFAKKK) and quantified by Molecular Devices' IMAP fluorescence polarization technology. Compounds were tested in serially diluted concentrations in 384 well plates. Kinase reaction was performed in KAB Buffer (10 mM HEPES, pH 7, 50 mM NaCl, 5 mM MgCl2, 1 mM DTT, 0.1 mM NaVO4, 0.02% BSA), in the presence of 22.8 uM ATP, incubated at 37° C. for 60 minutes. Reaction was stopped by IMAP bead mix (at 1:400 diluted). After incubation at room temperature for 3 hours, the reaction product was analyzed on LJL Acquest (excitation 485 nm and Emission 530 nm).
FP reading (in mP) was used to calculate reaction rate. The assay was semi automated by Tomtec Quadra workstation.

[3] = molecular target: human recombinant PDGFR beta (Homo sapiens, UniProt P09619); test: IC50 determination for inhibitors of PDGFR kinase (IMAP fluorescence polarization); assay type: biochemical; details: 48 uM ATP, room temperature, 60 minutes, read-out: IC50 PDGFR kinase inhibition
human recombinant PDGFR beta, sequence (P09619 33-1106): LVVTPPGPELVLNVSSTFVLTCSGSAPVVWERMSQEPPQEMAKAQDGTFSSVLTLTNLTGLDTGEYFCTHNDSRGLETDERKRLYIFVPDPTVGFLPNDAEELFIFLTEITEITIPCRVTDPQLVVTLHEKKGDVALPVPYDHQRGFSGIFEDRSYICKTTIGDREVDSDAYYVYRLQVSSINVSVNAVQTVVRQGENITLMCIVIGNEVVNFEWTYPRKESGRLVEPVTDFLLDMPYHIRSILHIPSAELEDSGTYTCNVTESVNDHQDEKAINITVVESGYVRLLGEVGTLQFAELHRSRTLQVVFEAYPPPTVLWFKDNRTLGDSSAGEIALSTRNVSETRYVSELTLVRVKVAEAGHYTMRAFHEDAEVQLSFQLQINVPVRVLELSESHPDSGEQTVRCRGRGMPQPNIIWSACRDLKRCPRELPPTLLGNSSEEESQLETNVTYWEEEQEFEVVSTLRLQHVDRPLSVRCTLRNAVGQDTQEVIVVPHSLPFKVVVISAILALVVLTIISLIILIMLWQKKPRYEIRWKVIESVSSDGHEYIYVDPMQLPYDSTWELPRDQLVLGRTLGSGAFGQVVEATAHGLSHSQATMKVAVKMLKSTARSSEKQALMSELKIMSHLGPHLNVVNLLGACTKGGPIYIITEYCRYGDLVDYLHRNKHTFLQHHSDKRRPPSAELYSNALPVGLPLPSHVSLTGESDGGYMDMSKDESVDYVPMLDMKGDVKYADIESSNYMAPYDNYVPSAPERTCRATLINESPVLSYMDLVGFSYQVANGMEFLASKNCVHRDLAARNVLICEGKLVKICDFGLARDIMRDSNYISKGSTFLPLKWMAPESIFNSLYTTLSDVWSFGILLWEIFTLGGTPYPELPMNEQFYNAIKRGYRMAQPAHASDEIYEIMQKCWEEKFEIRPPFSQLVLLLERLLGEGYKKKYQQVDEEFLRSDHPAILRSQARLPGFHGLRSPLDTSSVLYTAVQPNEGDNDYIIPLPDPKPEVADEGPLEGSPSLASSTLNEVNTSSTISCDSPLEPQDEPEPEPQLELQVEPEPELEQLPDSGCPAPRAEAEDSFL
Description: PDGFR assay was carried out with human recombinant PDGFR beta, fluorescein labeled peptide substrate (with a peptide sequence of ALTSNQEYLDLSMPL) and test compounds (in serial dilution) using 384-well plates. Kinase reaction was performed in MOPS buffer (20 mM MOPS pH 7.1, 5 mM Sodium Acetate, 6.25 mM MgCl2, 0.5 mM EDTA, 1 mM DTT, 0.04 mM NaVO4, 0.02% BSA), in the presence of 48 uM ATP, incubated at room temperature for 60 minutes. Reaction was stopped by IMAP Bead Binding System (Molecular Devices). After incubation at room temperature for 2 hours, the reaction product was analyzed on LJL Acquest.
as §1

HCT 116 cells = test: CellTiter-Glo assay in HCT 116 cells (antiproliferative activity); assay type: cell-based; details: Homo sapiens, HCT-116, 120 h, cell viability after 5 days
Description: The CellTiter-Glo™ Luminescent Cell Viability Assay (Promega) is a homogeneous method of determining the number of viable cells in culture based on quantitation of the ATP present, which signals the presence of metabolically active cells.
HCT 116 cells (human colon carcinoma, ATCC-No. CCl-247) were cultivated in RPMI 1640 medium with GlutaMAX™ 1 (Invitrogen, Cat-No. 61870-010), 5% Fetal Calf Serum (FCS, Sigma Cat-No. F4135 (FBS)); 100 Units/ml penicillin/100 μg/ml streptomycin (=Pen/Strep from Invitrogen Cat. No. 15140). For the assay the cells were seeded in 384 well plates, 1000 cells per well, in the same medium. The next day the test compounds were added in various concentrations ranging from 30 μM to 0.0015 μM (10 concentrations, 1:3 diluted). After 5 days the CellTiter-Glo™ assay was done according to the instructions of the manufacturer (CellTiter-Glo™ Luminescent Cell Viability Assay, from Promega). In brief: the cell-plate was equilibrated to room temperature for approximately 30 minutes and than the CellTiter-Glo™ reagent was added. The contents were carefully mixed for 15 minutes to induce cell lysis. After 45 minutes the luminescent signal was measured in Victor 2, (scanning multiwell spectrophotometer, Wallac).
• Medium: RPMI 1640 with GlutaMAX™ 1 (Invitrogen, Cat-No. 61870), 5% FCS (Sigma Cat.-No. F4135), Pen/Strep (Invitrogen, Cat No. 15140). • HCT116 (ATCC-No. CCl-247): 1000 cells in 60 μl per well of 384 well plate (Greiner 781098, μClear-plate white) • After seeding incubate plates 24 h at 37° C., 5% CO2 2nd. Day: Induction (Treatment with Compounds, 10 Concentrations):
In order to achieve a final concentration of 30 μM as highest concentration 3.5 μl of 10 mM compound stock solution were added directly to 163 μl media. Then step e) of the dilution procedure described below, was followed.

T1 sequence (P05480 whole entry): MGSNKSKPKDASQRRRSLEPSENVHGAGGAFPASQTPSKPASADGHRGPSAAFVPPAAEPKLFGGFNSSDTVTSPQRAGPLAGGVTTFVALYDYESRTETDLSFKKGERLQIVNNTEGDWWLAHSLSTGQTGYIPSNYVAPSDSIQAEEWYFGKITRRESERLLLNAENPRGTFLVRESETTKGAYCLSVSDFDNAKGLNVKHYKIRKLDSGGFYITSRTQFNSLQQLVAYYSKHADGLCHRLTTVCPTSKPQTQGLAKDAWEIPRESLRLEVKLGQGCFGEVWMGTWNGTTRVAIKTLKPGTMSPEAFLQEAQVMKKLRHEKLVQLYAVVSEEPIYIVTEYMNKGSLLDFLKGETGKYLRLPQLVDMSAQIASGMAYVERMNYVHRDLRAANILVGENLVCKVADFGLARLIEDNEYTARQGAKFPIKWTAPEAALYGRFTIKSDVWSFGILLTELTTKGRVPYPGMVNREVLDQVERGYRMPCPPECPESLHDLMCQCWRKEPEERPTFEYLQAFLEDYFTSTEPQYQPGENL

pIC50 [1]: 6.72
pIC50 [2]: 6.00 to 8.30
pIC50 [3]: 6.00 to 8.00
pIC50 (HCT 116 cells): 5.00 to 7.00
SMILES: O=C(Nc1ccc(Cl)c(C(=O)Nc2cnc3[nH]ccc3c2)c1)c1ccc(N2CCOCC2)cc1 [Example 2-3, 2-Chloro-5-(4-morpholin-4-yl-benzoylamino)-N-(1H-pyrrolo[2,3-b]pyridin-5-yl)-benzamide]
